Data as given in patent US5681966A, “Compounds and methods for the treatment of cardiovascular, inflammatory and immune disorders” (Cytomed, Inc., priority 1995, dated 1997).
One block for each molecule: values may come before it.

Legend:
5-lipoxygenase [1] = target: T1, 5-lipoxygenase (Rattus norvegicus, UniProt P12527); experiment: Inhibition of soluble 5-lipoxygenase in RBL-1 cell extract (cytosol 5-lipoxygenase of rat basophile leukemia cells; RBL); format: biochemical; conditions: for IC50: RBL-1 cell extract; for activity in 5-lipoxygenase assay: qualitative
T1 construct: The supernatant solution (cytosol fraction) containing 5-lipoxygenase was stored; endogenous in cells; host or cells: RBL-1 rat basophilic leukemia cells, 105,000 x g supernatant (cytosol)
T1 sequence (P12527 1-673): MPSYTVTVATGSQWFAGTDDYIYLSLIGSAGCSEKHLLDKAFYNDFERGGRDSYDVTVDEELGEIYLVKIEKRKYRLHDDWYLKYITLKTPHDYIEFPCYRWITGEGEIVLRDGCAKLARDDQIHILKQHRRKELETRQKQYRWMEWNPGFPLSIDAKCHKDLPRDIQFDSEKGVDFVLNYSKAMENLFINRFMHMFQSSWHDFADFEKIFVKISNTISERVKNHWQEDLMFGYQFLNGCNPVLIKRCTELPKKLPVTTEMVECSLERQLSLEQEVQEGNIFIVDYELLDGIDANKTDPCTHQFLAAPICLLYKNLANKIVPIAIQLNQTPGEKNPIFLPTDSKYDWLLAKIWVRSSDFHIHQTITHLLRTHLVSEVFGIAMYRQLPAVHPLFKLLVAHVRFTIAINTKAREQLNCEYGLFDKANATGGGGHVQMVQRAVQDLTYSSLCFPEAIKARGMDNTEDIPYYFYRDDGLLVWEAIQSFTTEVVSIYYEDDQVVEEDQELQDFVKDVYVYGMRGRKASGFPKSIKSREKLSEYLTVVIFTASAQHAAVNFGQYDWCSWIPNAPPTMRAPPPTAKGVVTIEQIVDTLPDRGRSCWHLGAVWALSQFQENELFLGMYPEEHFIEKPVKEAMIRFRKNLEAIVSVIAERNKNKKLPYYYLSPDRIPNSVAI
Procedure: Effect of Compounds on Cytosol 5-Lipoxygenase of Rat Basophile Leukemia Cells
Washed rat RBL cells (4×108) were suspended in 20 ml of […] potassium phosphate buffer at pH 7.4 containing 10% ethylene glycol/1 mM EDTA (Buffer A). The cell suspension was sonicated at 20 KHz for 30 seconds, and the sonicate was centrifuged at 10,000 × g for 10 minutes, followed by further centrifugation at 105,000 × g for 1 hr. The supernatant solution (cytosol fraction) containing 5-lipoxygenase was stored at -70° C. Protein concentration was determined according to the procedure of Bradford (Bradford Dye Reagent) with bovine serum albumin as a standard.
For routine assay of 5-lipoxygenase the mixture contained 50 mM potassium phosphate buffer at pH 7.4, 2 mM CaCl2, 2 mM ATP, […] arachidonic acid (0.1 Ci) and enzyme ([…] of protein) in a final volume of […]. The reaction was carried out at 24° C. for 3 minutes. The mixture was extracted with 0.2 ml of an ice-cold mixture of ethyl ether:methanol: 0.2M citric acid (30:4:1). The extract was subjected to thin-layer chromatography at -10° C. in a solvent system of petroleum ether:ethyl ether:acetic acid (15:85:0.1). The silica gel zones corresponding to authentic arachidonic acid and its metabolites were scraped into scintillation vials for counting. The enzyme activity was expressed in terms of the amount of arachidonic acid oxygenated for 3 minutes.
Table 3 provides data for the inhibition of soluble 5-lipoxygenase in RBL-1 cell extract by racemic compound 202, as well as its enantiomers, compounds […], 234, and 236.

[2] = tested on: 5-lipoxygenase (ex vivo LTB4); experiment: Ex vivo whole blood 5-lipoxygenase evaluation (ex vivo LTB4); format: in vivo; conditions: rat, 10 mg/kg po, 180'
Procedure: Ex-vivo Mouse and Rat Whole Blood 5-lipoxygenase Evaluation
CD-1 female mice, weighing 18-25 grams, and CD female rates, weighing 150-230 grams, were obtained from Charles River Labs. Compounds were dissolved in 0.5% DMSO in 0.9% NaCl for administration in mice (0.5 mg/ml) and in an alcohol Vehicle (2% benzyl alcohol, 1% ethanol, 40% PEG 300 10% propylene glycol, 47% of 5% dextrose plus 3.5% pluronic F-68 in DiH2 O) for use in rates (5 mg/ml). […] Heparinized whole blood (0.3 ml) was added into 1.5 ml Eppendorf centrifuge tub containing […] of 2 mM calcium ionophore A23187 (the final concentration of A23187 was […]). The sample was incubated for 30 minutes in a water bath of 37° C., and then centrifuged for 2 minutes. The plasma was diluted (×120) and assayed for LTB4 using EIA.
Table 3 provides data for the ex-vivo mouse and rat whole blood 5-lipoxygenase values on administration of racemic compound 202, as well as its enantiomers, compounds 216, 217, 234, and 236.

[3] = cited from earlier work
platelets = conditions: active concentration; cited from earlier work
PAF receptor = conditions: cited from earlier work; for PAF receptor antagonism / inhibition of PAF binding: qualitative
[4] = tested on: PAF-induced rat cutaneous vascular permeability; conditions: 30 mg/kg body weight; orally active; cited from earlier work
5-lipoxygenase [5] = conditions: qualitative; cited from earlier work

Molecule: C[C@H](C#C[C@@H]1CC[C@@H](c2ccc(F)cc2)O1)N(O)C(N)=O
IC50 (5-lipoxygenase [1]): 3800 nM

Molecule: C[C@@H](C#C[C@@H]1CC[C@@H](c2ccc(F)cc2)O1)N(O)C(N)=O
IC50 (5-lipoxygenase [1]): 3510 nM

Molecule: C[C@H](C#C[C@H]1CC[C@H](c2ccc(F)cc2)O1)N(O)C(N)=O
IC50 (5-lipoxygenase [1]): 3100 nM

Molecule: C[C@@H](C#C[C@H]1CC[C@H](c2ccc(F)cc2)O1)N(O)C(N)=O
IC50 (5-lipoxygenase [1]): 2000 nM

Molecule: 1-O-alkyl-2-acetyl-sn-glycerol-3-phosphorylcholine [PAF]
plasma half life [3]: 2 to 4 min
potency (active at) (platelets): 10^-12 to 10^-9 M

Molecule: CCCCCCCCCCCCCCCCCCNC(=O)OCC(COP(=O)([O-])OCC[n+]1ccsc1)OC (racemic) [CV-3988, rac-3-(N-n-octadecyl-carbamoyloxy-ω-methoxypropyl-2-thiazolioethyl phosphate]
PAF receptor antagonism / inhibition of PAF binding (PAF receptor): PAF receptor antagonist properties

Molecule: COc1cc([C@H]2CC[C@H](c3cc(OC)c(OC)c(OC)c3)O2)cc(OC)c1OC (relative stereo) [L-652,731, trans-2,5-bis-(3,4,5-trimethoxyphenyl) tetrahydrofuran]
inhibition of PAF-induced cutaneous vascular permeability [4]: inhibit PAF-induced rat cutaneous vascular permeability
PAF receptor antagonism / inhibition of PAF binding (PAF receptor): inhibits the binding of tritiated PAF to PAF receptor sites
relative potency, trans versus cis (PAF receptor; trans-L-652,731 vs cis-L-652,731): approximately 1000 times
effect on 5-lipoxygenase (5-lipoxygenase [5]): no effect on the enzyme 5-lipoxygenase

Molecule: COc1cc([C@H]2CC[C@H](c3cc(OC)c(OC)c(OC)c3)S2)cc(OC)c1OC (relative stereo) [L-653,150, trans-2,5-bis-(3,4,5-trimethoxyphenyl)tetrahydrothiophene]
PAF receptor antagonism / inhibition of PAF binding (PAF receptor): potent PAF antagonist
effect on 5-lipoxygenase (5-lipoxygenase [5]): moderate inhibitor of 5-lipoxygenase

Molecule: CCCOc1c(OC)cc([C@@H]2CC[C@@H](c3cc(OC)c(OC)c(OC)c3)O2)cc1S(C)(=O)=O (relative stereo) [L-659,989, trans-2-(3-methoxy-4-propoxyphenyl-5-methylsulfonyl)-5-(3,4,5-trimethoxyphenyl)tetrahydrofuran]
PAF receptor antagonism / inhibition of PAF binding (PAF receptor): orally active, potent, competitive PAF receptor antagonist
equilibrium inhibition constant relative to trans-L-652,731 (PAF receptor; vs trans-L-652,731): 10 times

Molecule: C=CCC1=C[C@@]2(OC)C(=CC1=O)O[C@H](c1ccc(OC)c(OC)c1)[C@H]2C [kadsurenone]
PAF receptor antagonism / inhibition of PAF binding (PAF receptor): potent, specific and competitive inhibitor of PAF activity at the receptor level

The next lines start with results.

IC50 (5-lipoxygenase [1]): 618 nM
Molecule: NC(=O)N(O)CCCCC1CCC(c2ccc(F)cc2)O1 (stereo not shown)
ex vivo LTB4 % (inhibition), last sub-column [2]: 83%

IC50 (5-lipoxygenase [1]): 1100 nM
Molecule: NC(=O)N(O)CCCC[C@@H]1CC[C@@H](c2ccc(F)cc2)O1

IC50 (5-lipoxygenase [1]): 2800 nM
inhibition at 1.6 µM (5-lipoxygenase [1]; dose 1.6 uM, read-out: RBL % inh.): 20%
Molecule: CC(C#C[C@@H]1CC[C@@H](c2ccc(F)cc2)O1)N(O)C(N)=O (relative stereo)

activity in 5-lipoxygenase assay (5-lipoxygenase [1]): showed activity in this assay
Molecule: CN(O)C(=O)NCCCO[C@@H]1CC[C@@H](c2ccc(F)cc2)O1 (relative stereo) [Compound 9, 2-(4-fluorophenyl)-5-[3-(N'-methyl-N'-hydroxyureidyl)propoxy] tetrahydrofuran]

activity in 5-lipoxygenase assay (5-lipoxygenase [1]): showed activity in this assay
Molecule: CN(O)C(=O)NCCCO[C@@H]1CC[C@H](c2ccc(F)cc2)O1 (relative stereo) [Compound 11, 2-(4-fluorophenyl)-5-[3-(N'-methyl-N'-hydroxyureidyl)propoxy] tetrahydrofuran]

activity in 5-lipoxygenase assay (5-lipoxygenase [1]): showed activity in this assay
Molecule: NC(=O)N(O)CCCO[C@@H]1CC[C@@H](c2ccc(F)cc2)O1 (relative stereo) [Compound 14, 2-(4-fluorophenyl)-5-(3-hydroxyureidylpropoxy) tetrahydrofuran]

activity in 5-lipoxygenase assay (5-lipoxygenase [1]): showed activity in this assay
Molecule: NC(=O)N(O)CCCO[C@@H]1CC[C@H](c2ccc(F)cc2)O1 (relative stereo) [Compound 15, 2-(4-fluorophenyl)-5-(3-hydroxyureidylpropoxy) tetrahydrofuran]
